Experiment [1] in a line: Vesicle leakage (calcein-cobalt) assay. The conditions noted are these: 37° C. How it is done:
Lipid Preparation and Formation of Unilamellar Phospholipid Vesicles. Lipid mixtures and vesicles were prepared as described previously (Laszlo et al. 2010. ibid). Lipids were prepared from appropriate amounts of DOPC in chloroform and LDOG-SS- or LDOG-SH (at 1- or 5-mol % of total lipids) in ethanol added to clean amber vials and then gently mixed. Solvents were removed under a stream of argon and then vacuum. The dried lipids were rehydrated in the appropriate buffer and mixed periodically to form multilamellar phospholipid vesicles. The vesicles were subjected to freeze-thaw cycles and then extrusion to form unilamellar vesicles (approx. 125 nm in diameter). Vesicles were covered with argon, protected from light and stored at 4° C. until used. DOPC vesicles incorporating 1- or 5-mol % ALA or DHLA were similarly produced.
Vesicle Leakage (Calcein-Cobalt). Vesicles with and without LDOG were evaluated for membrane integrity using a leakage assay described previously (Evans. Room-temperature ionic liquid cations act as short-chain surfactants and disintegrate a phospholipid bilayer. Colloid. Surface. A 2006, 274:11-17; and Laszlo et al. 2010. ibid). Briefly, the leakage assay was designed such that the low fluorescent signal of the entrapped calcein-cobalt complex increased as vesicles leaked their contents and cobalt was stripped from calcein by external EDTA. Vesicle leakage was monitored with a fluorometer. Samples were continuously stirred in 1-cm path length quartz cuvettes 37° C., with measurements taken for 30 min at 5-s intervals. Experiments were conducted in triplicate. Leakage percentage (L) was determined from the intensity of the fluorescent signal, 100×(Ft−Fo)/(Fmax−Fo), where Ft was the fluorescent signal over time, Fo was the extrapolated initial signal at time zero, and Fmax was the fluorescent signal at the end of the experiment after rupture by addition of Triton X-100 solution. The apparent rate constant k (ms^−1) and maximum extent of vesicle leakage (L∞), prior to vesicle rupture, were obtained by fitting to the equation: Lt=L∞(1−exp(−kt)).

Experiment [2] is described as follows: Lipid peroxidation inhibition capacity assay (AAPH initiator, C11-Bodipy reporter). The conditions noted are these: for antioxidant capacity compared with Trolox at the same concentration / oxidation protection of DOPC vesicles (C11-Bodipy fluorescence): in words; for oxidation protection of DOPC vesicles (C11-Bodipy fluorescence): AAPH. It is filed as biochemical. How it is done:
Lipid Oxidation Inhibition. Lipid oxidation inhibition by LDOG was measured by the lipid peroxidation inhibition capacity assay, which employs AAPH as a free-radical initiator and the lipidic reporter molecule C11-Bodipy (Zhang et al., Lipid peroxidation inhibition capacity assay for antioxidants based on liposomal membranes. Mol. Nutr. Food Res. 2006, 50:714-724). C11-Bodipy fluoresces at 595 nm until it is oxidized, at which point its fluorescence shifts to ˜520 nm (Drummen et al., C11-bodipy581/591, an oxidation-sensitive fluorescent lipid peroxidation probe: (micro)spectroscopic characterization and validation of methodology. Free Radical Biol. Med. 2002, 33:473-490). Conditions for the assay using modified glycerides have been detailed previously (Laszlo et al. 2010. ibid). DOPC and C11-Bodipy were combined in a vial, dried to a film, and then rehydrated in 20 mM Tris-HCl, pH 7.4. When included, ALA, DHLA, LDOG-SS-, or LDOG-SH (at 1- or 5-mol % of total lipids) in ethanol were added prior to formation of vesicles. Unilamellar vesicles were prepared from rehydrated lipids as described above. Samples were diluted to a final concentration of 2.5 mM DOPC (2.4 μM C11-Bodipy) and allowed to equilibrate to 37° C. for 15 min prior to the introduction of AAPH. From the time of AAPH addition (40 mM final concentration), fluorescence intensity (excitation at 540 nm, emission at 595 nm) was measured every minute for 180 min. Experiments were conducted in triplicate at least. The relative fluorescence intensity was calculated by dividing the reading at each minute by the initial fluorescence at the beginning of the experiment (Ft/Fo). Background subtraction was accomplished using the appropriate vesicles without C11-Bodipy.
The water-soluble antioxidant Trolox was used for comparison. Trolox was combined with DOPC and C11-Bodipy, dried, and then rehydrated as described above. A final Trolox concentration range of 10 to 125 μM was employed. The peroxyl radical scavenging capacity of the test antioxidant relative to Trolox (i.e., the relative antioxidation activity) was calculated using the following equation
[formula] where AUCSample is the area under the fluorescence curve (AUC) for vesicles containing antioxidant, AUCTrolox is the area under the curve for vesicles containing 50 μM Trolox (thereby arbitrarily assigned a relative antioxidation activity value of 1.0), AUC0 is the area under the curve for vesicles containing only C11-Bodipy, and molSample is the molar concentration of the antioxidant (Naguib, A fluorometric method for measurement of peroxyl radical scavenging activities of lipophilic antioxidants. Anal. Biochem. 1998, 265:290-298). The AUC was calculated from the average of three different methods, those described by Cao and coworkers (Cao et al., Oxygen-radical absorbance capacity assay for antioxidants. Free Radical Biol. Med. 1993, 14:303-311), Naguib (Naguib, Antioxidant activities of astaxanthin and related carotenoids. J. Agric. Food. Chem. 2000, 48:1150-1154), and Zhang and coworkers (Zhang et al. 2006. ibid).

For experiment [3] the following is noted: earlier study (Laszlo et al. 2010); cited from earlier work.
The mark [4] stands for this setting: antioxidant amount 1 mol % in DOPC vesicles.
Where [5] appears, read: antioxidant amount 5 mol % in DOPC vesicles.
Where [6] appears, read: concentration 25 μM, relative to 50 μM Trolox, DOPC vesicles, 37° C.
The mark [7] stands for this setting: concentration 125 μM, relative to 50 μM Trolox, DOPC vesicles, 37° C.

The source of these data is patent US8455666B1, “Vegetable oil esterified lipoic acid” (The United States of America, as represented by the …, priority 2011, dated 2013).

For the compound `O=C(O)CCCC[C@@H](S)CCS` (racemic) [DHLA, dihydrolipoic acid], the leakage rate constant is on record as 1.43 ± 1.25 ms^−1 · 10^3 in experiment [1] (setting [4]) and 0.48 ± 0.05 * ms^−1 · 10^3 in experiment [1] (setting [5]). For the same compound, the relative antioxidant capacity came out at 1.95 ± 0.03 in experiment [2] (setting [6]) and 1.12 ± 0.02 in experiment [2] (setting [7]). Also, in experiment [2], the “antioxidant capacity compared with Trolox at the same concentration” value is reported as “double”.

Consider `O=C(O)CCCCC1CCSS1` (stereo not drawn) [ALA, α-Lipoic acid], for which the leakage rate constant in experiment [1] (setting [4]) is 5.19 ± 1.32 * ms^−1 · 10^3; in experiment [1] (setting [5]) it was 3.98 ± 1.69 ms^−1 · 10^3. In addition, the figures for the relative antioxidant capacity in experiment [2] (setting [6]) and in experiment [2] (setting [7]) were 0.61 ± 0.26 and 0.29 ± 0.05, respectively.

Consider `Cc1c(C)c2c(c(C)c1O)CCC(C)(C(=O)O)O2` (stereo not shown) [Trolox], for which the relative antioxidant capacity in experiment [2] (concentration 10 μM, relative to 50 μM Trolox, DOPC vesicles, 37° C.) was 0.98 ± 0.28; in experiment [2] (setting [6]), 0.80 ± 0.09; in experiment [2] (concentration 50 μM, reference arbitrarily assigned 1.0) it was 1.00; in experiment [2] (setting [7]), 0.80 ± 0.08.

As for “dihydrolipoyl dioleoylglycerol [LDOG—SH]”, the leakage rate constant is 4.90 ± 0.90 * ms^−1 · 10^3 in experiment [1] (setting [4]) and 1.88 ± 0.01 ms^−1 · 10^3 in experiment [1] (setting [5]). The “oxidation protection of DOPC vesicles (C11-Bodipy fluorescence)” value in experiment [2] (37° C.) is listed as “markedly extended the probe's fluorescent period”. The relative antioxidant capacity was found to be 2.46 ± 0.10 in experiment [2] (setting [6]) and 1.21 ± 0.04 in experiment [2] (setting [7]). For the same compound, the “antioxidant capacity compared with Trolox at the same concentration” value in experiment [2] was “double”.

Regarding feruloyl dioleoylglycerol, in experiment [3], the “antioxidant capacity compared with Trolox” value is reported as “slightly less”.

lipoyl dioleoylglycerol [LDOG—SS—]: the leakage rate constant in experiment [1] (setting [4]) is listed as 0.43 ± 0.12 * ms^−1 · 10^3; in experiment [1] (setting [5]) it was 0.31 ± 0.06 * ms^−1 · 10^3. Moreover, in experiment [2] (37° C.), the “oxidation protection of DOPC vesicles (C11-Bodipy fluorescence)” value was “afforded little oxidation protection”. In addition, the relative antioxidant capacity is reported as 0.09 ± 0.01 in experiment [2] (setting [6]) and 0.02 ± 0.002 in experiment [2] (setting [7]).
